From patent US5240918A, “2-(substituted imino)-thiazolidines and process for the preparation thereof” (EGIS Gyogyszergyar, priority 1992, dated 1993)
Read-outs that look alike come from different tables or passages of the source.

Columns and labels:
[1] = Toxicity (LD50) and therapeutical index, Table II; settings: mouse, in vivo
acetic acid "writhing" = test: Acetic acid "writhing test" on mice (analgesic effect; method of Newbould); assay type: in vivo; settings: Mus musculus, po
Procedure: 2. Acetic acid "writhing test" on mice (analgesic effect) Method: Newbould, Brit. […] In the period between the 5th and 10th minutes following the administration of acetic acid the number of the characteristic "writhing" responses is counted for each animal and the "total writhing number" (within 5 minutes) is expressed as the percentage of the value obtained for the control animals. The mice are treated with the test compound and the carrier, respectively, orally 1 hour before the administration of acetic acid. 12 animals are used per dose.

[2] = test system: experimental coronaria insufficiency induced with vasopressin; test: Antianginal effect (vasopressin-induced experimental coronaria insufficiency, ECG wave T; method of Nieschulz et al.); assay type: in vivo; settings: male rats, 2 minutes prior to vasopressin; for ED50: Rattus norvegicus, iv.
Procedure: Method: the test was carried out on rats by using the method of Nieschulz, E., Popendiker, K. and Hoffmann, I. (Arzneimittel Forschung, 5, 680 /1955/).
Male rats of 180-220 g body weight were narcotized with chloralese-urethane(70-700 mg/kg ip.). The ECG was registered with needle electrodes in standard II leading. The experimental coronaria insufficiency was induced with […].). The height of wave T in ECG was measured before and after the administration of vasopressin in both the control and treated groups. Test compounds were administered intravenously 2 minutes prior to the treatment with vasopressin.

[3] = white mice, orally 1 hour before acetic acid, writhing counted 5th to 10th minutes, 12 animals per dose, read-out: ID50 (the source's name)

SMILES | LD50 [1] [mg/kg] | selectivity ratio [1] | ED50 (acetic acid "writhing"; read-out: ID50 mg/kg) [mg/kg] | ED50 [2] [mg/kg] | Activity (2 mg/kg iv.) [2] [%] | ED50 (acetic acid "writhing"; [3]) [mg/kg]
CC(=O)Oc1ccccc1C(=O)O [Acetylsalicylic acid, reference compound] | 1350 | 5.2 | 261 | – | – | –
C=CCNC(=S)N=C1SCCN1c1cc(Cl)ccc1[N+](=O)[O-] [Example 20, 2-(N'-Allylthiocarbamoylimino)-3-(5'-chloro-2'-nitrophenyl)-thiazolidine] | – | – | – | 1.45 | 78 | –
CC(=O)N=C1SCCN1c1ccc(Cl)cc1[N+](=O)[O-] [Example 24, 2-Acetylimino-3-(4'-chloro-2'-nitrophenyl)-thiazolidine] | 700 | 10.9 | – | – | – | 37
CC(=O)N=C1SCCN1c1ccccc1[N+](=O)[O-] [Example 25, L-Acetylimino=3-(2-nitrophenyl)-thiazolidine] | 2000 | 11.1 | – | – | – | 180
CC(=O)N=C1SCCN1c1ccc(C(F)(F)F)cc1[N+](=O)[O-] [Example 26, 2-Acetylimino-3-(4'-trifluoromethyl-2'-nitrophenyl)-thiazolidine] | 2000 | 11.8 | – | – | – | 170
N#CN=C1SCCN1c1cc(Cl)ccc1[N+](=O)[O-] [Example 46, 2-Cyanimido-3-(5'-chloro-2'-nitrophenyl)thiazolidine] | – | – | – | 1.76 | 62 | –
